Source: US20070082044A1, “Synergistic effect of compositions comprising carotenoids selected from lutein, beta-carotene and lycopene” (TRUSTEES OF TUFTS COLLEGE, priority 2004, published 2007)
Entries after “also recorded” stand apart in the source; their conditions may differ. Marks after values point to notes of the source that are not given here.

What was measured:
[1] = test system: lymphocyte DNA; test: Basal (endogenous) lymphocyte DNA damage, alkaline single cell gel electrophoresis (comet) assay; type: in vivo, human; details: for basal lymphocyte DNA damage: women 50-70 yr, mixed 4 mg each/d, single carotenoid 12 mg/d, Means ± SD; for basal DNA damage, percent of comet tail ratio (each day value divided by day 1): d 57, different from placebo p<0.005, FIG. 6; for basal (endogenous) DNA damage compared to day 1: day 15
Method: (§1) A study was undertaken to evaluate the effectiveness of the composition of the present invention and its effect on the patients. Thirty-seven healthy non-smoking post-menopausal women (50˜70 yr) were randomly assigned to one of 5 groups, to take a daily dose of mixed carotenoids (β-carotene, lutein and lycopene, 4 mg each), or 12 mg of single carotenoid (β-carotene, lutein or lycopene), or placebo for 8 weeks. Plasma carotenoid concentrations were analyzed by an HPLC system with a C30 column, and lymphocyte DNA damage was determined by a single cell gel electrophoresis (comet) assay.
(§2) From the second day of intervention, subjects took either 1) placebo, 2) 4 mg of lutein, 4 mg of β-carotene and 4 mg of lycopene, 3) 12 mg of lutein, 4) 12 mg of β-carotene, or 5) 12 mg of lycopene. On study days 15, 29, 43, and 57, overnight fasting bloods (10 mL) were collected, and 1) plasma carotenoids, 2) antioxidant capacity in both the aqueous and lipid compartments, 3) lipid peroxidation, and 4) DNA damage will be measured in these samples. In addition, 70 mL of fasting blood was collected at days 1 and 57 for the analysis of gene expression profiling in peripheral blood mononuclear cells using high-density filter-based cDNA microarrays. On study day 57, an additional 3 ml of blood was collected to measure the hemoglobin level.
(§3) DNA breaks and oxidized pyrimidine bases were measured using the alkaline comet assay (Duthie et al Cancer Res 1996; 56:1291-1295). The comet assay, also called the Single Cell Gel Assay, was used to detect DNA damage and repair at the level of single cells. The Comet Assay is a rapid, sensitive test for DNA damage detection (e.g., single- and double-strand breaks, oxidative-induced base damage, and DNA-DNA/DNA-protein cross linking) by electrophoresis. The Comet Assay involves the following steps: 1. Slide preparation (i.e., mixing of cells with low melting agarose, and spread over glass microscope slides); 2. Lysis: (i.e., lysis of cell membrane and other proteins); 3. Unwinding of DNA; 4. Electrophoresis; 5. Neutralization; and 6. Staining and scoring. Cells embedded in agarose on a microscope slide are lysed with non-ionic detergent and high salt, leaving supercoiled matrix-attached DNA in a nucleoid. Under alkaline electrophoresis, DNA with breaks extends towards the anode, forming a “comet tail” when viewed by fluorescence microscopy. The percentage of total fluorescence in the tail is linearly related to DNA break frequency up to about 2 per 10^9 daltons.
(§4) Lymphocyte separation: Lymphocytes were separated immediately after blood samples were collected. Lymphocytes were isolated by density gradient sedimentation (Histopaque 1077, Sigma diagnostic, St. Louis, USA) and frozen in 50% fetal calf serum, 40% culture medium (RPMI 1640, Sigma diagnostic, St. Louis, USA ) and 10% dimethyl sulfoxide to −-80° C. at −1° C./min freezing rate before store in liquid nitrogen.
(§5) Cryopreserved lymphocytes recovery: Cells were recovered by submerging in 37° C. water bath until last trace of ice has melted. Cells were transferred to prechilled 50% RPMI 1640 medium and 50% fetal calf serum and centrifuged at 200 g for 5 min at 4° C. Cells were resuspended in cold PBS and checked for viability (typically 95% viability) and cell number (typically 1×10^5 cells/mL). The lymphocytes of five time points (d1, 15, 29, 43 & 57) were recovered at the same time.
(§6) Alkaline single cell gel electrophoresis: DNA strand breaks were measured in lymphocytes with the alkaline single cell gel electrophoresis, comet assay, (Collins A R. Methods Mol Biol 2002; 203:163-77) with minor modifications. The endogenous DNA damage as well as hydrogen peroxide challenged DNA damage were determined by exposing the agarose embedded with cells to PBS or H2O2 in PBS (10 μM) for 10 min respectively.
(§7) Quantitation of DNA damage: The DNA damage was determined by visual image analysis (Collins A R et al. Methods Mol Biol 2002; 186:147-59). […]

[2] = test system: lymphocyte DNA; test: Hydrogen peroxide induced lymphocyte DNA damage, comet assay; type: in vivo, human; details: for hydrogen peroxide induced lymphocyte DNA damage: DNA challenged with 10 μM H2O2 for 10 min, Means ± SD; for H2O2 induced DNA damage compared to day 1: after 56-day intervention (d 57), H2O2 10 micromolar for 10 min, p<0.05
Method: as §1, §2, §3, §4, §5, §6, §7

[3] = parameters: species or system human; details: in vivo
Method: as §1
Subjects (50-70 yr, n=37) were housed at the MRU for the first two days of the study. On the first day of the study, subjects were randomly assigned to take either 1) placebo, 2) 4 mg each of lutein, β-carotene and lycopene, 3) 4 mg of lutein, 4) 4 mg of β-carotene, or 5) 4 mg of lycopene with a meal containing 25 g of fat. Subjects were provided with a two-week supply of placebo or carotenoids along with instructions how to consume the supplements while being maintained with a low carotenoid diet on each sampling day (days 1, 15, 29 & 43). In particular, they were instructed to take the carotenoid supplements with their first meal of the day, and this food source should include 10 g of fat to insure maximum absorption of the carotenoid supplement. 10 mL of blood will be drawn at 0 (fasting), 2, 4, 6, 8, 10, 12 and 14 hours after the carotenoid dose to obtain information on the early kinetics of carotenoid absorption and tissue uptake. The subjects had the option to have an intravenous line inserted for blood drawing (I.V.). If they chose this option, 12 mL of blood was drawn for each sample and the first 2 mL of blood was discarded. Chylomicrons (the triglyceride-rich fraction of plasma) were isolated and analyzed for carotenoids to determine the plasma response kinetics in these 14 hr samples. Thereafter, subjects were discharged from the HNRC with a two-week supply of placebo or carotenoids along with instructions on how to consume the doses while being maintained on a low carotenoid diet.
as §2
Plasma carotenoid concentrations were measured by a HPLC system as previously described with minor modification (Yeum K J et al. Am J Clin Nutr 1996; 64:594-602). Plasma sample (200 μL) was extracted with 2 mL of chloroform:methanol (2: 1) followed by 3 mL of hexane. Samples were dried under nitrogen and resuspended in 75 μL ethanol:methyl tert-butyl ether (2:1) of which 25 μL was injected onto the HPLC. The HPLC system consisted of a Waters 2695 Separation Module, 2996 Photodiode Array Detector, a Waters 2475 Multi X Fluorescence Detector, a C30 carotenoid column (3 μm, 150×3.0 mm, YMC, Wilmington, N.C.), and a Waters Millenium 32 data station. The mobile phase was methanol:methyl tert-butyl ether:water (85:12:3 with 1.5% ammonium acetate in water; […]) and methanol:methyl tert-butyl ether:water (8:90:2 with 1% ammonium acetate in water; […]). The gradient procedure has been reported earlier (Yeum K J et al. Am J Clin Nutr 1996; 64:594-602). Results were adjusted by an internal standard containing echinenone and retinyl acetate. The CV for interassay (n=25) is 4% and intra assay Is 4% (n=9). […]

| SMILES | basal lymphocyte DNA damage ([1]; Day 01 (baseline)) [%] | basal lymphocyte DNA damage ([1]; Day 15) | basal lymphocyte DNA damage ([1]; Day 29) | basal lymphocyte DNA damage ([1]; Day 43) | basal lymphocyte DNA damage ([1]; Day 57) | basal DNA damage, percent of comet tail ratio (each day value divided by day 1) [1] | basal (endogenous) DNA damage compared to day 1 [1] | hydrogen peroxide induced lymphocyte DNA damage ([2]; Day 01 (baseline)) [%] | hydrogen peroxide induced lymphocyte DNA damage ([2]; Day 15) [%] | hydrogen peroxide induced lymphocyte DNA damage ([2]; Day 29) [%] | hydrogen peroxide induced lymphocyte DNA damage ([2]; Day 43) [%] | hydrogen peroxide induced lymphocyte DNA damage ([2]; Day 57) | H2O2 induced DNA damage compared to day 1 [2] | plasma lutein levels, change [3] | plasma lycopene concentrations, change [3] | plasma β-carotene levels, change [3] |
| --- | --- | --- | --- | --- | --- | --- | --- | --- | --- | --- | --- | --- | --- | --- | --- | --- |
| CC1=C(/C=C/C(C)=C/C=C/C(C)=C/C=C/C=C(C)/C=C/C=C(C)/C=C/C2=C(C)CCCC2(C)C)C(C)(C)CCC1 [β-carotene] | 12.4 ± 2.7 | 9.7 ± 2.4^b % | 8.6 ± 2.9^a % | 9.4 ± 2.4^a % | 8.0 ± 1.8^b % | significantly decreased | significantly decreased | 48.2 ± 6.1 | 44.5 ± 8.9 | 41.1 ± 6.2 | 44.2 ± 5.7 | 38.0 ± 4.8% | significantly improved; also recorded: significantly decreased | no increase | significantly lower levels |  |
| CC1=C[C@H](O)CC(C)(C)[C@H]1/C=C/C(C)=C/C=C/C(C)=C/C=C/C=C(C)/C=C/C=C(C)/C=C/C1=C(C)C[C@@H](O)CC1(C)C [Lutein, lutein] | 10.6 ± 1.4 | 9.4 ± 2.1% | 9.5 ± 1.4% | 7.7 ± 1.5^b % | 7.1 ± 1.7*^c % | significantly decreased |  | 42.8 ± 6.8 | 43.5 ± 6.2 | 43.1 ± 5.6 | 41.5 ± 9.3 | 39.8 ± 8.4^a % | did not show any significant change |  | significantly lower levels | did not show any increase |
| CC(C)=CCC/C(C)=C/C=C/C(C)=C/C=C/C(C)=C/C=C/C=C(C)/C=C/C=C(C)/C=C/C=C(\C)CCC=C(C)C [Lycopene, lycopene] | 11.9 ± 2.6 | 10.0 ± 3.5^a % | 9.0 ± 2.6^a % | 7.5 ± 1.9^b % | 6.8 ± 1.6*^c % | significantly decreased | significantly decreased | 50.5 ± 8.9 | 49.2 ± 10.1 | 51.1 ± 3.5 | 50.0 ± 6.5 | 42.5 ± 6.5^b % | significantly improved; also recorded: significantly decreased | no increase | significantly increased | did not show any increase |
